Experimental data as given in patent US11192889B2, “Tetrahydronaphthyridinepentanamide integrin antagonists” (The Rockefeller University, priority 2016, dated 2021).
Values joined by “and” are separate entries in the source; they are usually repeats but may differ in a detail not shown here. Equal entries are not always repeated.

Legend:
Type in all cases: cell-based
HEK-293-αVβ3 cells [1] = test: AP5 Binding Assay; details: 10 mM EDTA; average±SD of 17 experiments
Description: (§1) HEK-293 Cells Expressing αVβ3. HEK-293 cells were transfected using lipofectamine 2000 (Invitrogen #11668030) with the cDNA for αV using the pEF1/V5-His A vector and the cDNA for β3 using the vector pcDNA3.1. Cells expressing αVβ3 were identified by their reaction with murine monoclonal antibodies (mAbs) LM609 and 7E3, and stable cell lines were established by repetitive sorting using LM609. […] HEK-293-αVβ3 cells for assays are counted in an automated cell counter (ADVIA 120) and adjusted to values appropriate for each assay.
(§2) AP5 Binding Assay. HEK-293-αVβ3 cells are harvested using 0.05% trypsin 0.5 mM EDTA, washed with HBMT once, and resuspended in HBMT containing 1 mM Mg2+ and 2 mM Ca2+. The cells are counted and adjusted to 0.5×10^6 cells per sample. The compound to be tested and fluorescently labeled mAb AP5 (either Alexa 488 or Alexa 674; 10 μg/mL) are added and incubated for 30 minutes at 37° C. The cells are then washed and analyzed by flow cytometry (BD FACSCalibur) at the appropriate wavelength for detecting the AP5 fluorophore. In each assay, cilengitide (1 μM) and 10 mM EDTA are included as positive controls and untreated cells are used as the negative control. The concentration of the test compound required to induce the expression of 50% of the AP5 expression induced by cilengitide is calculated and defined as the EC50. The EC50 for cilengitide was determined based on the expression induced by EDTA.

HEK-293-αVβ3 cells [2] = biological target: T1, HEK-293-αVβ3 cells (Homo sapiens, UniProt P05106+P06756); test: AP5 Binding Assay; details: for activation at 10 µM: relative to AP5 expression induced by cilengitide, read-out: AP5 expression induced at the highest concentration; for EC50: concentration inducing 50% of the AP5 expression induced by 1 μM cilengitide
T1 sequence (P05106 whole entry): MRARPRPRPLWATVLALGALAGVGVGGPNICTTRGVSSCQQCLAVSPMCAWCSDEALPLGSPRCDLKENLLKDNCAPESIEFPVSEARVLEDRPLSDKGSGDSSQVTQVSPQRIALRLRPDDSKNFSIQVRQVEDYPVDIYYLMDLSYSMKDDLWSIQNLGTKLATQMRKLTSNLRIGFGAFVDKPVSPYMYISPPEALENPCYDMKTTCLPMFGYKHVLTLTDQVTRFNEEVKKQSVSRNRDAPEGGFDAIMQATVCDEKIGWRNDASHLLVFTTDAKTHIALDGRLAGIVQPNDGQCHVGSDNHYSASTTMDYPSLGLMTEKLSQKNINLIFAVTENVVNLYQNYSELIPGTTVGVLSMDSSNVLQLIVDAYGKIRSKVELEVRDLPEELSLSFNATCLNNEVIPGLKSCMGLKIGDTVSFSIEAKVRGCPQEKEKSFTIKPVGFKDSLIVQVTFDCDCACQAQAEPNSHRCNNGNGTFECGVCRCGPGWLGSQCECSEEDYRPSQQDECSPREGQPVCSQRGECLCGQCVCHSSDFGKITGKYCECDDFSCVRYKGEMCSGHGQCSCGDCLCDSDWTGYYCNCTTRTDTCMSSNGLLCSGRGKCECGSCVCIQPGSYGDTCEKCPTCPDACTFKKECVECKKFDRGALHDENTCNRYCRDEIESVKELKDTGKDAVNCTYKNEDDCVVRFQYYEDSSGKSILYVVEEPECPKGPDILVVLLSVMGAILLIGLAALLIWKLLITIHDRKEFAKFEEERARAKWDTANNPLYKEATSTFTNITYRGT
T1 sequence (P06756 whole entry): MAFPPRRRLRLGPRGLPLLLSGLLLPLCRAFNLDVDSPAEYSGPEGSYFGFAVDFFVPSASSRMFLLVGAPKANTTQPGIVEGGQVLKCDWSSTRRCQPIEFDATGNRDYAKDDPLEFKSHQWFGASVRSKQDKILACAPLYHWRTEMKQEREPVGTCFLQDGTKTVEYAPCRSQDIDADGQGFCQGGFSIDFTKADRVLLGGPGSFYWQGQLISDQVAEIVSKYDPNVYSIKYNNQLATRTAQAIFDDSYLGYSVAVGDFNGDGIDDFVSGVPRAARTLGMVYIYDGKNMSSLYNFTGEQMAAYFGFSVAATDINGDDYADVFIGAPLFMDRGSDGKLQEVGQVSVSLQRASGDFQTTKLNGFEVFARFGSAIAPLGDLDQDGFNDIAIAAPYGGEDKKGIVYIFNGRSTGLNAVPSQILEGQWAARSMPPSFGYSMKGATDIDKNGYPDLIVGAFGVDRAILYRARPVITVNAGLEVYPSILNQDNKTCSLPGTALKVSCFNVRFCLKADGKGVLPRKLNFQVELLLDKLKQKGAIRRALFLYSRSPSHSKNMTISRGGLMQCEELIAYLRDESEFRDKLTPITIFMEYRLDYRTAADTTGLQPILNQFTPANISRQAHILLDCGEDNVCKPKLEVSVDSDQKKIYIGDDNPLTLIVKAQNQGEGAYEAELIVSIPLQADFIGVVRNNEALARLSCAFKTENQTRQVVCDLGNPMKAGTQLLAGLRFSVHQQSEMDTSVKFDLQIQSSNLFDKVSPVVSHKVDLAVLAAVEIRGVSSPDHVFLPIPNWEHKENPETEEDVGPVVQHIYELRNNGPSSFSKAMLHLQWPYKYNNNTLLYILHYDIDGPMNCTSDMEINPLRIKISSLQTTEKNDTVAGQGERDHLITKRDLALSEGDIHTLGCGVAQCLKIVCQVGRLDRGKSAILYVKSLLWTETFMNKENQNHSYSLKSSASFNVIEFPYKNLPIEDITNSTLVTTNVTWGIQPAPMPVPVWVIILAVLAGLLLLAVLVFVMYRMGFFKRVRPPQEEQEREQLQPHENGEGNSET
Description: as §1, §2

HEK-293-αVβ3 cells [3] = biological target: T1, HEK-293-αVβ3 cells; test: αVβ3 Cell Adhesion to Fibrinogen Assay; parameters: IC50; other: dose reducing by 50% the adhesion of HEK-293-αVβ3 cells to fibrinogen; untreated cells 100% adhesion, 10 mM EDTA 0%; details: dose reducing by 50% the adhesion of HEK-293-αVβ3 cells to fibrinogen; separate determinations listed
Description: as §1
αVβ3 Cell Adhesion to Fibrinogen Assay. Polystyrene 96-well microtiter plates (Costar, 3590) are precoated with 3.5 μg/mL of purified fibrinogen (Enzyme Research Laboratories) in 0.15 M NaCl, 0.01 M Tris/HCL, pH 7.4 for 1 hour at 37° C. The wells are then washed and incubated with HEPES-Buffered Modified Tyrode's solution (HBMT; 0.128 M NaCl, 10 mM HEPES, 12 mM NaHCO3, 0.4 mM NaH2PO4, 2.7 mM KCl, 0.35% bovine serum albumin (Fisher), 0.1% glucose, pH 7.4) for 1 hour at room temperature or overnight at 4° C. Wells are washed with HBMT containing 1 mM Mg2+ and 2 mM Ca2+ and then 50 μL of HEK-293-αVβ3 cells that have been pretreated with the compound to be tested for 20 minutes at room temperature are added to each well at a concentration of 3,000 cells/μL. After 30-32 minutes the wells are washed with HBMT containing Ca2+ and Mg2+ three times and then the adherent cells are lysed and the acid phosphatase activity that is released is measured by: 1. adding phosphatase substrate (Sigma EC 224-246-5) at 2 mg/mL in 0.1 M Na citrate, pH 5.6, 0.1% triton X-100 for 1 hour at room temperature; 2. stopping the reaction by adding 50 μL of 2 M NaOH; and 3. analyzing the samples in a spectrophotometer at 405 nm. In each assay, 10 mM EDTA is used as a positive control and untreated cells are used as a negative control. The IC50 is the dose of test compound that reduces by 50% the adhesion of the HEK-293-αVβ3 cells, taking the results with untreated cells as 100% and the results in the presence of EDTA as 0%. In some instances more than one IC50 determination was made, in which case, results of separate determinations are reported. IC50's were not determined for all compounds in the table; for some of these test compounds the inhibition at specific doses are reported. In some instances, the test compound produced a greater reduction than 10 mM EDTA, and these are shown as negative numbers.

| activation at 10 µM (HEK-293-αVβ3 cells [2]) [%] | EC50 (HEK-293-αVβ3 cells [2]) [nM] | IC50 (HEK-293-αVβ3 cells [3]) | Structure (SMILES) | AP5 expression (HEK-293-αVβ3 cells [1]) |
| --- | --- | --- | --- | --- |
|  |  |  | O=C(O)CN(CCN(CC(=O)O)CC(=O)O)CC(=O)O [EDTA, reference compound] | 21.8±5.9 arbitrary fluorescence units |
| 5 | > 10000 | 128 nM | O=C(CCCCc1nc2c(cc1C1CC1)CCCN2)NCCC(Nc1nc2ccccc2o1)C(=O)O (centres unmarked) [Example 83, 2-(1,3-benzoxazol-2-ylamino)-4-[5-(3-cyclopropyl-5,6,7,8-tetrahydro-1,8-naphthyridin-2-yl)pentanoylamino]butanoic acid] |  |
| 31 | > 10000 | 121 nM | O=C(CCCCc1ccc2c(n1)NCCC2)NCCC(C(=O)O)c1cnc2ccccc2c1 (centres unmarked) [Example 84, 2-(quinolin-3-yl)-4-(5-(5,6,7,8-tetrahydro-1,8-naphthyridin-2-yl)pentanamido)butanoic acid] |  |
| 5 | > 10000 | 151 nM | O=C(CCCCc1ccc2c(n1)NCCC2)NCC[C@@H](Nc1nc2ccccc2o1)C(=O)O [Example 85, (R)-2-(benzo[d]oxazol-2-ylamino)-4-(5-(5,6,7,8-tetrahydro-1,8-naphthyridin-2-yl)pentanamido)butanoic acid] |  |
| 7 | > 10000 | 129 nM and 169 nM | O=C(CCCCc1ccc2c(n1)NCCC2)NCC[C@@H](NC(=O)c1nc2ccccc2s1)C(=O)O [Example 86, (R)-2-(benzo[d]thiazole-2-carboxamido)-4-(5-(5,6,7,8-tetrahydro-1,8-naphthyridin-2-yl)pentanamido)butanoic acid] |  |
| 14 | > 10000 | 187 nM | O=C(CCCCc1ccc2c(n1)NCCC2)NCC[C@H](Nc1nc2ccccc2o1)C(=O)O [Example 87, (2S)-2-(1,3-benzoxazol-2-ylamino)-4-[5-(5,6,7,8-tetrahydro-1,8-naphthyridin-2-yl)pentanoylamino]butanoic acid] |  |
|  | > 10000 | 534 nM | O=C(CCCCc1ccc2c(n1)NCCC2)NCC[C@@H](Nc1ncc(-c2ccccc2)cn1)C(=O)O [Example 91, (R)-2-((5-phenylpyrimidin-2-yl)amino)-4-(5-(5,6,7,8-tetrahydro-1,8-naphthyridin-2-yl)pentanamido)butanoic acid] |  |
|  | > 10000 | 201 nM | O=C(CCCCc1ccc2c(n1)NCCC2)NCC[C@H](Nc1ncc(-c2ccccc2)cn1)C(=O)O [Example 92, (2S)-2-[(5-phenylpyrimidin-2-yl)amino]-4-[5-(5,6,7,8-tetrahydro-1,8-naphthyridin-2-yl)pentanoylamino]butanoic acid] |  |
